Measured values published in patent US6841577B2, “Pesticidal activity of plant essential oils and their constituents” (Ecosmart Technologies, Inc., priority 1999, dated 2005).

Experiments:
[1] = system: 2nd instar green peach aphid nymphs; assay: Cabbage leaf disc bioassay; assay type: in vivo
Description: A bioassay similar to that for S. litura larvae was used for additional larvae. Cabbage leaf discs were dipped in emulsified aqueous solutions, diluted 1:200 in water, on which 2nd instar green peach aphid nymphs were placed. For each treatment there was 10 aphids per disc with 5 replicates; each experiment was replicated in time (successive days) from 3-5 times. After 24 hours, aphids were reported as being (1) on the leaf disc and feeding; (2) alive, but walking off the disc; or (3) dead. In the field, aphids which cease feeding and abandon a host plant are very unlikely to survive.

[2] = system: octopamine receptor sites; assay: 3H-OA binding to ventral nerve cord / synaptosomal membrane protein; set-up: species or system American cockroach (Periplaneta americana); details: for cpm 3H-OA/500 μg protein: Table 1, solvent control 1280 ± 259
Description: Different concentrations of unlabeled octopamine (OA) (20, 30, 40, 50, 60, 100 ng) were tested on the binding activity as a positive control. Test chemicals were dissolved in acetone before the assay. Different concentrations of the test chemicals were added directly to the protein preparation from ventral nerve cord. The same amount of solvent (1 μl 0.1%) were added to the control samples. All assays with test chemicals were run in the presence and absence of 50 ng OA. All chemicals were added to the protein extract 20 min prior the addition of radio labeled ^3H-OA(100,000 cpm/sample). After 30 min at 24° C. of the addition of ^3H-OA, the reaction was stopped by the addition of ice-cold Tris buffer, and the samples were filtered through GF/C membrane using water vacuum. After two washes each with 5 ml Tris buffer, the membrane was removed, air dried and the radioactivity was counted in 4 ml liquid scintillation solution. The specific binding was calculated as the difference between the values in the presence and absence of unlabeled OA. All data are calculated as the mean±standard deviation of 5 assays.
Additional tests were conducted on radio labeled octopamine using other purified naturally occurring materials as given in Tables 2 and 3.

[3] = system: American cockroach; assay: Lethal effect of injected test chemicals; assay type: in vivo; details: dead/10
Description: Further studies were conducted to determine the LD 50 of purified naturally occurring plant essential oils and/or their constituents. […] Ten roaches per dose were used. Another group of ten roaches received the same volume of vehicle only (0.5 μl) and used as a control group. Mortality was recorded 24, 48, and 72 hours after exposure.

[4] = system: American cockroach; assay: Cross walk jar test on pre-treated surface; assay type: in vivo; details: Periplaneta americana, 24 h
Description: In the test, a known amount of the test material was dissolved in a known volume of acetone and applied to small jars and all inner bottom surfaces were covered. The bottom surface of each jar is approximately 250 cm^2. One hour after the acetone had completely evaporated, five American cockroaches were introduced to each jar. Control jars were treated exactly as above but with the known amount of acetone only.
The results of the “cross walk” jar tests are in Table 8 in which the “4-blend” was dispersed as an aerosol and a dust in the jar.
In this test, the acetone solution of the test material was placed in the jar and the roach inserted into the jar after the acetone had evaporated.
Mortality was measured 24 hours after exposure.
The “4-blend” and the individual constituents of the “4-blend” were tested using 10 cockroaches for each “cross walk” treatment. In addition, pyrethrins were tested separately and mixed with the various components.
A concentration of 100 mg/jar was used for each individual alone. In the co-treatment experiment without pyrethrins, 20 mg/jar for each chemical was used. In the cotreatment experiment with pyrethrins, 20 mg/jar for the naturally occurring plant material was used. Pyrethrins was used at 2 mg/jar. […] It was noted above that the mortality is dependent upon concentration. […] Some synergism is found between pyrethrins and either α-terpineol or benzyl alcohol.

[5] = system: American cockroaches; assay: Cross walk testing with eugenol in acetone or Isopar M; assay type: in vivo, American cockroach; set-up: KD (knockdown), of 5: unit not given beside the values
Description: Additional “cross walk” testing was conducted with eugenol. Table 18 provides data for 5% (by volume) eugenol in acetone and Table 19 provides data for 1% eugenol in acetone wherein five (5) American cockroaches were placed in the screened jars after the acetone had evaporated. IM=immobilized; KD=knockdown; D=dead; L=live (no effect).
Table 20 provides data for 5% (by volume) eugenol in 95% Isopar M and Table 21 provides data for 1% (by volume) eugenol in 99% Isopar M. Isopar M is an isoparaffinic hydrocarbon sold by Exxon Corporation.

[6] = system: heart of American cockroach (octopamine receptors); assay: Heartbeat after application to thoracic segment; assay type: in vivo; details: mean ±SD of three roaches
Description: To further establish the effect of the purified naturally occurring plant essential oils and/or their constituents on the American cockroach, a 300 μg amount of the chemical was applied to the thoracic segment of an intact and alive American cockroach. The heart beats/30 seconds was measured. The heart of the cockroach is known to have a high concentration of octopamine receptors and the heart beat is considered an important measurement to indicate the effect of the applied chemicals to the octopamine receptors.

[7] = 1% eugenol in 99% Isopar M, 2 min
[8] = 1% eugenol in 99% Isopar M, 5 min
[9] = 1% eugenol in 99% Isopar M, 45 min
[10] = 5% eugenol in 95% Isopar M, 2 min
[11] = 5% eugenol in 95% Isopar M, 5 min

In the case of `C=CCc1ccc(O)c(OC)c1` [eugenol], the “activity on green peach aphid nymphs, in words” value ([1]; 1:200 dilution) is reported as “somewhat more active”, the “Percentage of aphids Walking (off disc)” value ([1]; diluted 1:200 in water, after 24 hours, n = 250, Table 16, control 23.4) is reported as 38.3% and the “Percentage of aphids Dead” value ([1]; diluted 1:200 in water, after 24 hours, n = 250, Table 16, control 24.8) is reported as 44.3%. For the same compound, the “Percentage of aphids Feeding” value ([1]; diluted 1:200 in water, after 24 hours, n = 250, Table 16, control 51.7) was 17.7%, the “cpm 3H-OA/500 μg protein” value ([2]; 300 ng test chemical) was 818 ± 93 cpm 3H-OA/500 μg protein and the “cpm 3H-OA/500 μg protein” value ([2]; 500 ng test chemical) was 730 ± 59 cpm 3H-OA/500 μg protein. For the same compound, the “cpm 3H-OA/500 μg protein” value ([2]; 700 ng test chemical) was 453 ± 39 cpm 3H-OA/500 μg protein, the “cpm 3H-OA/500 μg protein” value ([2]; 1000 ng test chemical) was 226 ± 15 cpm 3H-OA/500 μg protein and the “cpm 3H-OA/500 μg protein” value ([2]; 1500 ng test chemical) was 200 ± 17 cpm 3H-OA/500 μg protein. For the same compound, the “classification with respect to octopamine receptor sites (OAR)” value ([2]; based on the binding data of Tables 1-3) was “high OAR antagonists”, the “Mortality 24 hr after treatment” value ([3]; 300 μg) was 2/10 and the “Mortality 24 hr after treatment” value ([3]; 400 μg) was 3/10. For the same compound, the Mortality ([3]; 500 μg/roach injected into thoracic and abdominal segments, 24 hr.) was 6/10, the Mortality ([3]; 500 μg/roach injected, 48 hr.) was 6/10 and the Mortality ([3]; 500 μg/roach injected, 72 hr., control 1/10) was 6/10. For the same compound, the “Mortality 24 hr after treatment” value ([3]; 500 μg) was 5/10, the “Mortality 24 hr after treatment” value ([3]; 600 μg) was 8/10 and the “Mortality 24 hr after treatment” value ([3]; 700 μg) was 9/10. The mortality at 100 mg [4] was 100%, the “D (dead), of 5” value [5, 7] was 2/5 and the “IM (immobilized), of 5” value [5, 7] was 1/5. For the same compound, the “KD (knockdown), of 5” value [5, 7] was 1/5, the “D (dead), of 5” value [5, 8] was 3/5 and the “IM (immobilized), of 5” value [5, 8] was 1/5. For the same compound, the “IM (immobilized), of 5” value ([5]; 1% eugenol in 99% Isopar M, 15 min) was 2/5 IM, the “IM (immobilized), of 5” value ([5]; 1% eugenol in 99% Isopar M, 30 min) was 2/5 IM and the “D (dead), of 5” value [5, 9] was 4/5. The “IM (immobilized), of 5” value [5, 9] was 1/5, the “IM (immobilized), of 5” value ([5]; 1% eugenol in 99% Isopar M, 1 hr.) was 1/5 IM and the “D (dead), of 5” value ([5]; 1% eugenol in 99% Isopar M, 1.5 hr.) was 5/5 D. For the same compound, the “L (live, no effect), of 5” value ([5]; 1% eugenol in acetone, 2 min) was 5/5 L, the “L (live, no effect), of 5” value ([5]; 1% eugenol in acetone, 30 min) was 5/5 L and the “IM (immobilized), of 5” value ([5]; 1% eugenol in acetone, 45 min) was 3/5 IM. The “IM (immobilized), of 5” value ([5]; 1% eugenol in acetone, 1 hr.) was 3/5, the “KD (knockdown), of 5” value ([5]; 1% eugenol in acetone, 1 hr.) was 1/5 and the “IM (immobilized), of 5” value ([5]; 1% eugenol in acetone, 1.5 hr.) was 3/5. The “KD (knockdown), of 5” value ([5]; 1% eugenol in acetone, 1.5 hr.) was 1/5, the “IM (immobilized), of 5” value ([5]; 1% eugenol in acetone, 2 hr.) was 3/5 and the “KD (knockdown), of 5” value ([5]; 1% eugenol in acetone, 2 hr.) was 1/5. The “IM (immobilized), of 5” value ([5]; 1% eugenol in acetone, 4 hr.) was 3/5, the “KD (knockdown), of 5” value ([5]; 1% eugenol in acetone, 4 hr.) was 1/5 and the “IM (immobilized), of 5” value ([5]; 1% eugenol in acetone, 24 hr., (KD/IM recover)) was 2/5 IM (KD/IM recover). For the same compound, the “D (dead), of 5” value [5, 10] was 2/5, the “IM (immobilized), of 5” value [5, 10] was 1/5 and the “D (dead), of 5” value [5, 11] was 4/5. For the same compound, the “IM (immobilized), of 5” value [5, 11] was 1/5, the “D (dead), of 5” value ([5]; 5% eugenol in 95% Isopar M, 10 min) was 5/5 D and the “IM (immobilized), of 5” value ([5]; 5% eugenol in acetone, 2 min) was 1/5 IM. The “IM (immobilized), of 5” value ([5]; 5% eugenol in acetone, 5 min) was 1/5 IM, the “IM (immobilized), of 5” value ([5]; 5% eugenol in acetone, 15 min) was 3/5 IM and the “IM (immobilized), of 5” value ([5]; 5% eugenol in acetone, 30 min) was 3/5. For the same compound, the “KD (knockdown), of 5” value ([5]; 5% eugenol in acetone, 30 min) was 1/5, the “IM (immobilized), of 5” value ([5]; 5% eugenol in acetone, 45 min) was 3/5 and the “KD (knockdown), of 5” value ([5]; 5% eugenol in acetone, 45 min) was 1/5. For the same compound, the “IM (immobilized), of 5” value ([5]; 5% eugenol in acetone, 1 hr.) was 4/5, the “KD (knockdown), of 5” value ([5]; 5% eugenol in acetone, 1 hr.) was 1/5 and the “IM (immobilized), of 5” value ([5]; 5% eugenol in acetone, 1.5 hr.) was 4/5. For the same compound, the “KD (knockdown), of 5” value ([5]; 5% eugenol in acetone, 1.5 hr.) was 1/5, the “IM (immobilized), of 5” value ([5]; 5% eugenol in acetone, 2 hr.) was 4/5 and the “KD (knockdown), of 5” value ([5]; 5% eugenol in acetone, 2 hr.) was 1/5. For the same compound, the “D (dead), of 5” value ([5]; 5% eugenol in acetone, 4 hr.) was 4/5, the “KD (knockdown), of 5” value ([5]; 5% eugenol in acetone, 4 hr.) was 1/5 and the “D (dead), of 5” value ([5]; 5% eugenol in acetone, 24 hr.) was 5/5 D. The “effectiveness as a pesticide for American cockroaches, in words” value ([5]; 5% eugenol, in both modes of use (acetone, Isopar M)) was “highly effective”, the “Heart beat/30 sec 30 min after treatment” value ([6]; 300 μg applied to thoracic segment) was 24 ± 1 beat/30 sec and the “Heart beat/30 sec before treatment” value ([6]; baseline of the same roaches) was 55 ± 3 beat/30 sec.
